Structures are written as SMILES.

Experimental findings from ChEMBL document CHEMBL1135381, “Synthesis and structure-activity relationship of 2-(aminoalkyl)-2,3,3a,8-tetrahydrodibenzo[c,f]isoxazolo[2,3-a]azepine derivatives: a novel series of 5-HT(2A/2C) receptor antagonists. Part 2” (Bioorg Med Chem Lett, 2002) are described below.

In experiment [1] the target is T1, 5-hydroxytryptamine receptor 2C (Rattus norvegicus) (UniProt P08909).
T1 sequence (whole entry): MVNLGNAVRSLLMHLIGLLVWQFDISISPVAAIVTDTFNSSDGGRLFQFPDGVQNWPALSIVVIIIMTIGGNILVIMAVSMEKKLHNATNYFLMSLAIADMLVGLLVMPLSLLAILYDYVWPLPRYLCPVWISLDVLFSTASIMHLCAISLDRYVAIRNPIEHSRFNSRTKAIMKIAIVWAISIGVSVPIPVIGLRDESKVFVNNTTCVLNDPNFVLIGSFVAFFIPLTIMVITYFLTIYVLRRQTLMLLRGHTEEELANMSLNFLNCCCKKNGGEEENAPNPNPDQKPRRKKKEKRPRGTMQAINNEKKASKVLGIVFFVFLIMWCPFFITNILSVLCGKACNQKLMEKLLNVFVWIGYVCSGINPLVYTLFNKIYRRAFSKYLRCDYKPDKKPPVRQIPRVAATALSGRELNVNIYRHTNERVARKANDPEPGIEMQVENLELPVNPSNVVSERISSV
In words: In vivo activity in rat mCPP challenge test following p.o. administration. Format: functional, organism-based.

The subject of a further experiment is Rattus norvegicus. In words: In vivo activity in mCPP challenge test were performed in male Wistar rats by subcutaneous administration. In kind it is functional. The settings on record: sc.
Experiment [2] concerns the target Serotonin 3 (5-HT3) receptor. In words: Binding affinity for human cloned 5-hydroxytryptamine 3 receptor. Format: protein-complex assay.
The next experiment deals with D(2) dopamine receptor (Rattus norvegicus, UniProt P61169). The experiment is described as follows: Binding affinity for rat Dopamine receptor D2.
For experiment [3], the target named is 5-hydroxytryptamine receptor 2A (Homo sapiens, UniProt P28223). The experiment is described as follows: Binding affinity at human cloned 5-hydroxytryptamine 2A receptor expressed in L929 cells by [125I]R91150 displacement. Format: cell-based.
Experiment [4] concerns the target T2, 5-hydroxytryptamine receptor 1A (Homo sapiens, UniProt P08908).
T2 sequence (P08908 whole entry): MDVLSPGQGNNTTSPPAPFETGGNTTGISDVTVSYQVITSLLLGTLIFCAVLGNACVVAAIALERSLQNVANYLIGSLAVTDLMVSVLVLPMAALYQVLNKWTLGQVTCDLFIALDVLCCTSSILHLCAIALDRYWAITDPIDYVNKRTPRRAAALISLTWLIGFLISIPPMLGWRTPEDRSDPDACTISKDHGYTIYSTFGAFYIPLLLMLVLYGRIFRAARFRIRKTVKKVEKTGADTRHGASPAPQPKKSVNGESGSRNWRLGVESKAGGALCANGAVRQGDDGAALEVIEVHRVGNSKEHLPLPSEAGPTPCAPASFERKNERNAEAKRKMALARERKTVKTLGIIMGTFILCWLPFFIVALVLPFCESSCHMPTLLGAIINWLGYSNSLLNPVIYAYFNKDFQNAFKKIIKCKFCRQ
In words: Binding affinity for human cloned 5-hydroxytryptamine 1A receptor.

The target in a further experiment is D(3) dopamine receptor (Homo sapiens, UniProt P35462). In words: Binding affinity for human cloned Dopamine receptor D3.
Experiment [5] addresses T3, Alpha-2A adrenergic receptor (Homo sapiens, UniProt P08913).
T3 sequence (P08913 whole entry): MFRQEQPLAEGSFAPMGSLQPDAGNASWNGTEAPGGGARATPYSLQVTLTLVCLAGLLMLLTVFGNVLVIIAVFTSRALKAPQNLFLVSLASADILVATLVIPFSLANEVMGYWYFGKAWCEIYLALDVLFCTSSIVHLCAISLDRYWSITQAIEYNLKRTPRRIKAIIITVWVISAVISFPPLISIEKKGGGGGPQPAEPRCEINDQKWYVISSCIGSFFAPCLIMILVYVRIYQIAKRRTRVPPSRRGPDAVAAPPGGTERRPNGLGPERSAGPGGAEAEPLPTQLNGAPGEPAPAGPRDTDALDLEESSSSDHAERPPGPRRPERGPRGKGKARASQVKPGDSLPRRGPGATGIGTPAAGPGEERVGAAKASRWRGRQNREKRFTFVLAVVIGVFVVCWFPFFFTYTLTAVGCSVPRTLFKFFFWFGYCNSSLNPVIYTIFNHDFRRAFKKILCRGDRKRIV
In words: Binding affinity for human cloned Alpha-2A adrenergic receptor.

Experiment [6] concerns the target T4, Alpha-2C adrenergic receptor (Homo sapiens, UniProt P18825).
T4 sequence (P18825 whole entry): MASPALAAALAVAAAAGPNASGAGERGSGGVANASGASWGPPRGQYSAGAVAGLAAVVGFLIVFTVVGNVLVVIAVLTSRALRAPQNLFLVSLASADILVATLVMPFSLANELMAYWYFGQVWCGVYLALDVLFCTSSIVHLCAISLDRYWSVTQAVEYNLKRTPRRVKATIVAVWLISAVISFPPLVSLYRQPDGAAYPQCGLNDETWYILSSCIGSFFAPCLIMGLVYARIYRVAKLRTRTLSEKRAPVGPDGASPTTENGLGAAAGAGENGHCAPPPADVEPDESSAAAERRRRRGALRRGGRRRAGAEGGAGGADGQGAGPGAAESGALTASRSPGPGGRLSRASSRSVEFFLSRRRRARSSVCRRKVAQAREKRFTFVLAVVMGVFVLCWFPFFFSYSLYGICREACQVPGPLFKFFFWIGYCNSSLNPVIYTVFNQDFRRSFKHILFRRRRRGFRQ
The experiment is described as follows: Binding affinity for human cloned Alpha-2C adrenergic receptor.

Another experiment deals with T5, D(4) dopamine receptor (Homo sapiens, UniProt P21917).
T5 sequence (P21917 whole entry): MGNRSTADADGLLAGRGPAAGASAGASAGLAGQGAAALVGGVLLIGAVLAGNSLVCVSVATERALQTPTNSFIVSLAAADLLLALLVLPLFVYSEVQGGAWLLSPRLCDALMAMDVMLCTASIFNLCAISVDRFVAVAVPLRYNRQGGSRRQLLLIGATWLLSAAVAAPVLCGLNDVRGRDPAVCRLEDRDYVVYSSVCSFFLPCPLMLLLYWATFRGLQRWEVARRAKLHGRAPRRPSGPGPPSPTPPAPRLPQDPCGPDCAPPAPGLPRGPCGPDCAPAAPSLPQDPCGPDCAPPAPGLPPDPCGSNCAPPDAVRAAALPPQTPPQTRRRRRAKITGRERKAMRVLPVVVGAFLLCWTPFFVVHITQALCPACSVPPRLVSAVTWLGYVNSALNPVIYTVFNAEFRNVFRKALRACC
In words: Binding affinity for human cloned Dopamine receptor D4.

Experiment [7] addresses 5-hydroxytryptamine receptor 1D (Homo sapiens, UniProt P28221). The experiment is described as follows: Binding affinity for human cloned 5-hydroxytryptamine 1D receptor.
A further experiment addresses Histamine H1 receptor (Homo sapiens, UniProt P35367). In words: Binding affinity at human cloned Histamine H1 receptor expressed in CHO cells by [3H]pyrilamine displacement. Format: cell-based.
In experiment [8] the target is T6, 5-hydroxytryptamine receptor 2C (Homo sapiens, UniProt P28335).
T6 sequence (P28335 whole entry): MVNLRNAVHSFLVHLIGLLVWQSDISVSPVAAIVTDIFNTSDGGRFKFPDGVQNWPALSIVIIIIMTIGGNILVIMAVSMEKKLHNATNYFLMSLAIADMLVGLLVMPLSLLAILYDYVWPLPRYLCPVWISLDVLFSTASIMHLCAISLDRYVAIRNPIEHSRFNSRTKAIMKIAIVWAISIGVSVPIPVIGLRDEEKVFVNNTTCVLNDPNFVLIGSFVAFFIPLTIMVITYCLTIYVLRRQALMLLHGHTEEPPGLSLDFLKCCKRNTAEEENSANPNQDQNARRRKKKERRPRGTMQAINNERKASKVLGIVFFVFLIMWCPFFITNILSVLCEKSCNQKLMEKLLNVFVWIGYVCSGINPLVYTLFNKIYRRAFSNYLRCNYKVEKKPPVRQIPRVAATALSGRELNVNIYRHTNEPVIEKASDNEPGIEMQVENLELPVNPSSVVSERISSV
The experiment is described as follows: Binding affinity at human cloned 5-hydroxytryptamine 2C receptor expressed in CHO cells by [3H]mesulergine displacement. Format: cell-based.

Sequence of Histamine H1 receptor (P35367 whole entry): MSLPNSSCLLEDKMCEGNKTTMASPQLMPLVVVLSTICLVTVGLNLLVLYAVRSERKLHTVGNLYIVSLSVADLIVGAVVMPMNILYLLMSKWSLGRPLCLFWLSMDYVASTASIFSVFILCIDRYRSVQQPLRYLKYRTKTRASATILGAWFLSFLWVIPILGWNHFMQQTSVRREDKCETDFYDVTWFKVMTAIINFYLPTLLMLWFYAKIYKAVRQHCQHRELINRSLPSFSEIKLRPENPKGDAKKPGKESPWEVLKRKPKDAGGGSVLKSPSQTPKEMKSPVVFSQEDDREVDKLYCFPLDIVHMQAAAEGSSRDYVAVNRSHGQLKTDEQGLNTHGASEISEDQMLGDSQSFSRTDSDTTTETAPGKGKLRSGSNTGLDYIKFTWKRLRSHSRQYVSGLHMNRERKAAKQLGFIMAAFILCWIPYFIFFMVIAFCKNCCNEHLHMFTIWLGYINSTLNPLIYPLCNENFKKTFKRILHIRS
Sequence of 5-hydroxytryptamine receptor 2A (P28223 whole entry): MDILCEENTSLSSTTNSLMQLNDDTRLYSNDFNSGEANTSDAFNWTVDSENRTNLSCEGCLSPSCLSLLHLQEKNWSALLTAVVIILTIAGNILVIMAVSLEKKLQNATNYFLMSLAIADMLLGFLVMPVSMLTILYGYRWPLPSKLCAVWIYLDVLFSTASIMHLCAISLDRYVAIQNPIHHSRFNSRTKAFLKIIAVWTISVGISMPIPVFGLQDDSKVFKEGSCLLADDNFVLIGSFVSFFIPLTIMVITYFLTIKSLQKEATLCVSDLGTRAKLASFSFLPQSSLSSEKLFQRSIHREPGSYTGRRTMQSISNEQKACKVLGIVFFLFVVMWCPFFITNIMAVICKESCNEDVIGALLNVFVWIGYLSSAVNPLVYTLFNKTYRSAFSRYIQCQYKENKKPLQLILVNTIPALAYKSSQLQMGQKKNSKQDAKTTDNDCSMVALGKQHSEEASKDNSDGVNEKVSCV
Sequence of 5-hydroxytryptamine receptor 1D (P28221 whole entry): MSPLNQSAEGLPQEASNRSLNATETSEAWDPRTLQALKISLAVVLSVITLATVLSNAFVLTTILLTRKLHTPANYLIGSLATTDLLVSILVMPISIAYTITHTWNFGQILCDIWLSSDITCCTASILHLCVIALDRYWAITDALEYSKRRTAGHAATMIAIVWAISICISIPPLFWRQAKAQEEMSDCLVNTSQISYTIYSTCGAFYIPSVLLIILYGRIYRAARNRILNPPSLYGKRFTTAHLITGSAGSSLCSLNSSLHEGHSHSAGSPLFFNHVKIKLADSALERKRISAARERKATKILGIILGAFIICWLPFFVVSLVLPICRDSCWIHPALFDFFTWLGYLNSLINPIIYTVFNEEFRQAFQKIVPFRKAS
Sequence of D(2) dopamine receptor (P61169 whole entry): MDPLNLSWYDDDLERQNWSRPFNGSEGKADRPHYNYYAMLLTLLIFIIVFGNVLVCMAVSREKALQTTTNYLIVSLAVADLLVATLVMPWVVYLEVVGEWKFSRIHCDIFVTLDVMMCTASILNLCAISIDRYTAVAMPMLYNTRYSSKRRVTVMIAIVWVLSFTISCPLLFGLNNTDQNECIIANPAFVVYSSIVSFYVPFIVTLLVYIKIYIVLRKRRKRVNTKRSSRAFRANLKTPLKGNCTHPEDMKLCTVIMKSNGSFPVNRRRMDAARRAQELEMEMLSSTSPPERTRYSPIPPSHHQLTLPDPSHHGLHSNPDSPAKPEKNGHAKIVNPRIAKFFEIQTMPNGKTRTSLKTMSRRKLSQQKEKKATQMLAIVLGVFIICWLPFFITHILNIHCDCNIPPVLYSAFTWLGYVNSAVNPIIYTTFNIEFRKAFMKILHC
Sequence of D(3) dopamine receptor (P35462 whole entry): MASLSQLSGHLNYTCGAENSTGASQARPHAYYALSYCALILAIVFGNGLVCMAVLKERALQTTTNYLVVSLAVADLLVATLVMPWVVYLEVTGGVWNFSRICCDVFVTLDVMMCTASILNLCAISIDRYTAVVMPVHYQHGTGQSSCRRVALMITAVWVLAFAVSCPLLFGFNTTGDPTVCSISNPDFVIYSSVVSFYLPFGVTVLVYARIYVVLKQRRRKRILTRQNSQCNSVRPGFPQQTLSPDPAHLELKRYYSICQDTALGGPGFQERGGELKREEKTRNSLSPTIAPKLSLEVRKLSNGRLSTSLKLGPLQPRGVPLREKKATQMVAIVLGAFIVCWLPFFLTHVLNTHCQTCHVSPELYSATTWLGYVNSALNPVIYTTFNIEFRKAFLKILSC

For the molecule `CN(C)CC1CC2c3ccccc3Cc3cccc(Cl)c3N2O1` (configuration not stated), the ED50 (as a rule, the dose that gives a 50% effect, or the effect in half of the subjects) in experiment [1] is over 2.5 mg/kg.
Same read-out and setting: the figure for `CN(C)CC1CC2c3cccc(C(F)(F)F)c3Cc3ccccc3N2O1` (configuration not stated) is over 2.5 mg/kg.
For the molecule `CN(C)CC1CC2c3ccccc3Cc3ccc(Cl)cc3N2O1` (configuration not stated), the ED50 with Rattus norvegicus stood at 0.16 mg/kg; in [1] it was 0.63 mg/kg. The pIC50 (in general, the negative decadic logarithm of the IC50, by convention in mol/L) in [2] amounted to 6.32.
With `CN(C)CC1CC2c3ccccc3Cc3ccc(F)cc3N2O1` (configuration not stated), the IC50 (usually the concentration needed to halve the response being measured) at D(2) dopamine receptor is over 1000 nM; in experiment [3], 1.15 nM. Further, the 50% effect level in experiment [1] (ED50) was put at a dose of 2.5 mg/kg. This molecule returned a pIC50 in [2] of under 6.
Take `Cc1cccc2c1Cc1ccccc1C1CC(CN(C)C)ON21` (configuration not stated): the 50% effective dose (ED50) in experiment [1] is over 2.5 mg/kg.
As to `CN(C)CC1CC2c3cc(F)ccc3Cc3ccc(F)cc3N2O1` (configuration not stated), the IC50 (in experiment [4]; at D(3) dopamine receptor; in [5]; in [6]; on D(4) dopamine receptor; in experiment [7]) was over 1000 nM each time. Further, in experiment [3], the IC50 is 10.7 nM. For the same molecule, the figures for the ED50 (with Rattus norvegicus; in [1]) were 0.04 mg/kg and 0.63 mg/kg, respectively. In experiment [2], this molecule gave a negative-log IC50 (pIC50) of under 6.
`CN(C)CC1CC2c3ccccc3Cc3c(F)cccc3N2O1` (configuration not stated) gave an ED50 in experiment [1] of 2.5 mg/kg.
In experiment [1], `Cc1cccc2c1C1CC(CN(C)C)ON1c1ccccc1C2` (configuration not stated) returned a 50% effective dose (ED50) of over 2.5 mg/kg.
As for `CN(C)CC1CC2c3cccc(Cl)c3Cc3ccccc3N2O1` (configuration not stated), the IC50 (on Histamine H1 receptor; in [8]; in experiment [3]) was over 1000 nM throughout. In addition, the ED50 in experiment [1] is over 2.5 mg/kg.
`CN(C)CC1CC2c3cccc(F)c3Cc3ccccc3N2O1` (configuration not stated): the 50% effective dose (ED50) (in the experiment with Rattus norvegicus; in [1]) was 2.5 mg/kg throughout. The molecule further had a concentration for half-maximal inhibition (IC50) in experiment [3] of 31.6 nM.
With `CN(C)CC1CC2c3cc(C(F)(F)F)ccc3Cc3ccccc3N2O1` (configuration not stated), the half-inhibitory concentration (IC50) (at Histamine H1 receptor; in [8]; in [3]) was over 1000 nM each time. The ED50 in the experiment with Rattus norvegicus is 2.5 mg/kg; in [1], over 2.5 mg/kg.
As for `Cc1ccc2c(c1)N1OC(CN(C)C)CC1c1ccccc1C2` (configuration not stated), the IC50 (in experiment [4]; at D(3) dopamine receptor; in experiment [5]; in [6]; at D(4) dopamine receptor; in experiment [7]) was over 1000 nM each time. This molecule showed a half-maximal inhibitory concentration (IC50) on D(2) dopamine receptor of over 1000 nM. The ED50 in the experiment with Rattus norvegicus is 0.16 mg/kg; in experiment [1], 2.5 mg/kg. Moreover, the negative-log IC50 (pIC50) in [2] is given as under 6.
The molecule `CN(C)CC1CC2c3ccccc3Cc3ccc(Br)cc3N2O1` (configuration not stated) had an ED50 in experiment [1] of 2.5 mg/kg.
On to `CN(C)CC1CC2c3c(cccc3C(F)(F)F)Cc3ccccc3N2O1` (configuration not stated), for which the ED50 with Rattus norvegicus is 2.5 mg/kg; in experiment [1] it was over 2.5 mg/kg.
Molecule `Cc1ccc2c(c1)Cc1ccccc1N1OC(CN(C)C)CC21` (configuration not stated) returned a median effective dose (ED50) in experiment [1] of 2.5 mg/kg. This molecule also showed an IC50 in experiment [3] of 10.5 nM.
`CN(C)CC1CC2c3ccc(Cl)cc3Cc3ccccc3N2O1` (configuration not stated) returned a 50% effective dose (ED50) in the experiment with Rattus norvegicus of over 2.5 mg/kg.
On to `CN(C)CC1CC2c3ccccc3Cc3ccccc3N2O1` (configuration not stated), for which the ED50 in the experiment with Rattus norvegicus is 0.04 mg/kg; in experiment [1] it was 0.63 mg/kg.
`CN(C)CC1CC2c3ccccc3Cc3cc(F)ccc3N2O1` (configuration not stated) yielded an ED50 in [1] of 2.5 mg/kg.
For `CN(C)CC1CC2c3cc(F)ccc3Cc3ccccc3N2O1` (configuration not stated), the 50% effective dose (ED50) (in the experiment on Rattus norvegicus; in experiment [1]) was over 2.5 mg/kg each time.
The molecule `COc1ccc2c(c1)C1CC(CN(C)C)ON1c1ccccc1C2` (configuration not stated) came in with a median effective dose (ED50) in experiment [1] of over 2.5 mg/kg.
Take `CN(C)CC1CC2c3ccccc3Cc3ccc(-c4ccccc4)cc3N2O1` (configuration not stated): the ED50 (with Rattus norvegicus; in [1]) was over 2.5 mg/kg each time.
In the case of `CN(C)CC1CC2c3c(F)cccc3Cc3ccccc3N2O1` (configuration not stated), the IC50 (on Histamine H1 receptor; in experiment [8]; in [3]) was over 1000 nM throughout. In the experiment with Rattus norvegicus, this molecule had an ED50 of over 2.5 mg/kg.
